According to US9366676B2, “Fluorescent chemical compounds having high selectivity for double stranded DNA, and methods for their use” (LIFE TECHNOLOGIES CORPORATION, priority 2005, dated 2016):

How the values were obtained:
[1] = system: Jurkat cells; test: Flow cytometry with induced apoptosis cells (apoptosis time course); assay type: cell-based, human
Procedure: Live Jurkat cells were split into 13 samples and each cell split was suspended in complete RMPI/10% FBS. Samples was treated with 10 μM Camptothecin in DMSO to induce apoptosis, or treated with DMSO alone to act as a control. Treatment and control time was 1, 2, 3, 4, 5, and 6 hours, and a time zero point. The cell suspensions were then incubated at 37° C./5% CO2 for a designated time. This type of experiment is sometimes called an “apoptosis time course”. Each split was washed once in complete RPMI media/10% Fetal Bovine Serum (FBS) and resuspended at 1×10^6 cells/mL in complete RPMI media with 10% FBS. […] A SYTOX® Blue stain vs compound (24) stain plot was made and a gate was made on compound (24) stain positive and SYTOX® Blue stain negative cells to gate out dead cells, and to ensure only live cells were analyzed. Fluorescence from the SYTOX® Blue stain was collected using 405 nm excitation laser with 450/50 bandpass and compound (24) stain fluorescence was collected at 585/42 bandpass using the 488 nm excitation laser as well as collected at the same 585/42 bandpass using the 532 nm excitation laser. […] The data was further analyzed using ModFit LT Flow Cytometry Modeling Software from Verity Software House, Inc. to look at ratio of G2/G1 and the CV of G1 phase and the percent sub-G0 population (apoptotic population).

[2] = system: calf thymus double stranded DNA and ribosomal RNA; test: Determination of DNA/RNA fluorescence ratios; assay type: binding; conditions: for DNA/RNA (fluorescence ratio): 65 ug/mL calf thymus dsDNA vs 65 ug/mL ribosomal RNA, 10 mM Tris, 1 mM EDTA pH 7.5, ratio of 1 = no selectivity; for ex/em: emission: emission value, second number of ex/em cell; for ex/em: excitation: excitation value, first number of ex/em cell
Procedure: The tested compound was dissolved as a stock solution in DMSO at a concentration of about 0.1-1.0 mg/mL. The exact concentration is not critical. Three tubes are prepared, each containing the same 1-20 uL of stock solution. The first tube contained 10 mM Tris, 1 mM EDTA (pH 7.5) buffer; the second tube contained buffer and 65 ug/mL calf thymus double stranded DNA; and the third tube contained buffer and 65 ug/mL ribosomal RNA. The tubes were incubated at room temperature for 10-15 minutes with protection from light.
In some cases, it was necessary to dilute the sample to keep the fluorescence signal on-scale. In these cases, all three samples were diluted to the same degree. The ratio of the fluorescence of the compound in the presence of DNA and RNA was determined.
The following compounds were selected as representative of the inventive class of compounds. The fluorescence values in the presence of DNA and RNA were determined as described in the previous Example. […] A ratio of 1 would indicate no selectivity. Excitation and emission values are in nm

[3] = system: Jurkat cells (human T-lymphocyte); test: Flow cytometry cell cycle staining, live Jurkat cells; assay type: cell-based; conditions: 5 μM, 37° C., 60 minutes, ModFit
Procedure: Live Jurkat cells (human T-lymphocyte) were suspended at 1×10^6 cells/ml in RPMI media with 10% Fetal Bovine Serum (FBS). 5 μM Compound (20) was added to one mL cell suspension, and incubated at 37° C. for 60 minutes protected from light. Cells were processed using a Becton Dickinson (BD) LSRII Flow Cytometer. A Forward Scatter (FS) vs Side Scatter (SS) dual parameter plot was used to gate main cell population. On gated cells, a dual-parameter plot of Fluorescence-Width vs Fluorescence-Area was used for single cell discrimination gating. Single color fluorescence was collected at 530/30 bandpass using the 488 nm excitation laser, collecting 30,000 events at flow rate of about 200 events/second. The data was further analyzed using ModFit LT Flow Cytometry Modeling Software from Verity Software House, Inc. to determine the ratio of G2/G1 and the CV of G1 phase.

[4] = system: double stranded DNA; conditions: cited from earlier work
[5] = system: DNA; conditions: cited from earlier work

| SMILES | DNA/RNA (fluorescence ratio) [2] | ex/em: emission [2] [nm] | ex/em: excitation [2] [nm] | other results |
| --- | --- | --- | --- | --- |
| CC[C@@]1(O)C(=O)OCc2c1cc1n(c2=O)Cc2cc3ccccc3nc2-1 [Camptothecin, reference compound] | – | – | – | induction time at which sub-G0 population begins to show ([1]; 10 μM Camptothecin in DMSO, live Jurkat, time course 0-6 hours): 3 h |
| COc1cccc(OC)c1-c1ccc2c(c1)sc(C=C1C=C(N3CCN(C)CC3)N(Cc3ccccc3)c3ccccc31)[n+]2C [Compound 20] | 4 | 536 | 510 | G1-phase ([3]; 488 nm excitation, 530/30 bandpass): 47.08%; G2-phase [3]: 6.25%; G2/G1 ratio [3]: 1.83; S-phase [3]: 46.67% |
| COc1cccc(OC)c1-c1ccc2c(c1)sc(C=C1C=C(SCCN(C)C)N(Cc3ccccc3)c3ccccc31)[n+]2C [Compound 24] | 4.6 | 570 | 520 | excitation maximum ([2]; Example 114): 520 nm; emission maximum ([2]; Example 114 (orange)): 569 nm; staining of sub-G0 (apoptotic) population ([1]; 10 μM, 37° C., 30 minutes, live Jurkat treated with 10 μM Camptothecin, 488 nm or 532 nm excitation): stains live cells for identification of a sub-G0 population in apoptotic cells which increases with time of induction |
| CCN(CC)Cc1ccc(C2=CC(=Cc3sc4cc(-c5ccccc5)ccc4[n+]3C)c3ccccc3N2c2ccccc2)cc1 [Compound 91] | 1.5 | 563 | 522 | – |
| C[n+]1c(C=C2C=CN(Cc3ccccc3)c3ccccc32)sc2cc(-c3ccccc3)ccc21 [Compound 92] | 1 | 501 | 458 | – |
| C[n+]1c(C=C2C=CN(Cc3ccccc3)C(c3ccccc3)=C2)sc2cc(-c3ccccc3)ccc21 [Compound 93] | 1.5 | 514 | 466 | – |
| CC(=O)Nc1ccccc1-c1ccc2c(c1)sc(C=C1C=CN(Cc3ccccc3)c3ccccc31)[n+]2C [Compound 94] | 2.1 | 530 | 513 | – |
| C[n+]1c(C=C2C=CN(Cc3ccccc3)c3ccccc32)sc2cc(-c3cc4ccccc4s3)ccc21 [Compound 95] | 1.9 | 591 | 550 | – |
| C[n+]1c(C=C2C=CN(Cc3ccccc3)c3ccccc32)sc2cc(-c3cccs3)ccc21 [Compound 96] | 8 | 555 | 527 | – |
| C[n+]1c(C=C2C=CN(Cc3ccccc3)c3ccccc32)sc2cc(-c3cccnc3)ccc21 [Compound 97] | 3.7 | 538 | 513 | – |
| C[n+]1cccc(-c2ccc3c(c2)sc(C=C2C=CN(Cc4ccccc4)c4ccccc42)[n+]3C)c1 [Compound 99] | 1.3 | 534 | 511 | – |
| C[n+]1c(C=C2C=CN(Cc3ccccc3)c3ccccc32)sc2cc(-c3ccc(O)cc3)ccc21 [Compound 100] | 8.1 | 551 | 513 | – |
| CCCN(CCCN(C)C)C1=CC(=Cc2sc3cc(C(COC)COC)ccc3[n+]2C)c2ccccc2N1Cc1ccccc1 [Compound 101] | 3 | 527 | 503 | – |
| COc1cccc(OC)c1-c1ccc2c(c1)sc(C=C1C=CN(Cc3ccccc3)C(SCCCN(C)C)=C1)[n+]2C [Compound 102] | 3.3 | 515 | 475 | – |
| C[n+]1c(C=CC=C2C=CN(Cc3ccccc3)c3ccccc32)sc2cc(-c3ccccc3)ccc21 [Compound 103] | 3.1 | 537 | 507 | – |
| CCOC(=O)CCCOc1cccc(CN2C=CC(=CC=Cc3sc4cc(-c5ccccc5)ccc4[n+]3C)c3ccccc32)c1 [Compound 104] | 9 | 666 | 652 | – |
| COc1cccc(OC)c1-c1ccc2c(c1)sc(/C=C1\C=C(N(C)CCCC(=O)O)N(Cc3ccccc3)c3ccccc31)[n+]2C [Compound 109] | 121 | 525 | 496 | – |
| COc1cccc(OC)c1-c1ccc2c(c1)sc(/C=C1\C=C(N(C)CCCC(=O)NCCOCCOCCOCCO)N(Cc3ccccc3)c3ccccc31)[n+]2C [Compound 111] | 64 | 527 | 497 | – |
| CCOC(=O)CCCOc1cccc(CN2C=C/C(=C\c3sc4cc(-c5c(OC)cccc5OC)ccc4[n+]3C)c3ccccc32)c1 [Compound 112] | 191 | 541 | 500 | – |
| CN(C)CCCN(CCCN(C)C)c1cc(C=C2Sc3ccccc3N2C)c2ccccc2[n+]1-c1ccccc1 [PicoGreen] | – | – | – | fluorescence enhancement upon binding to double stranded DNA [4]: greater than 1000 fold |
| CCCN(CCCN(C)C)c1cc(/C=C2/Sc3ccccc3N2C)c2ccccc2[n+]1-c1ccccc1 [SYBR Green I] | – | – | – | fluorescence enhancement upon binding to DNA, relative to ethidium bromide [5]: at least 10 fold; fluorescence quantum yield [5]: about 0.8 |
| CN1C(=Cc2cc[n+](C)c3ccccc23)Sc2ccccc21 [Thiazole orange, reference compound] | 1 | 530 | 510 | – |
